Reference: article PMC5625151 (Pharmacology Research & Perspectives, 2017)
“Also recorded” adds a separate entry of the source.

What was measured:
[1] = system: NGF-dependent PC12 cell differentiation; test: PC12 NGF-dependent neurite outgrowth; type: cell-based; conditions: 500 pM NGF; for IC50: read-out: IC50 PC12 neurite outgrowth, 72 h, 100 μmol/L to 31.6 nmol/L, n = 3
immobilized TrkA = immobilized TrkA (Homo sapiens, UniProt P04629); test: SPR binding to immobilized TrkA
Mouse NGF = Mouse NGF (Mus musculus, UniProt P01139); test: SPR binding affinity of analogs to immobilized NGF; conditions: read-out: KD, binding affinity to immobilized NGF, two-site steady-state analysis, 0.70-200 μmol/L, 25 °C, mean of triplicate
PC12 cells = test: PC12 toxicity assay; type: cell-based; conditions: 100 μmol/L, 72 h, absence of NGF

Sequence of immobilized TrkA (P04629 33-796): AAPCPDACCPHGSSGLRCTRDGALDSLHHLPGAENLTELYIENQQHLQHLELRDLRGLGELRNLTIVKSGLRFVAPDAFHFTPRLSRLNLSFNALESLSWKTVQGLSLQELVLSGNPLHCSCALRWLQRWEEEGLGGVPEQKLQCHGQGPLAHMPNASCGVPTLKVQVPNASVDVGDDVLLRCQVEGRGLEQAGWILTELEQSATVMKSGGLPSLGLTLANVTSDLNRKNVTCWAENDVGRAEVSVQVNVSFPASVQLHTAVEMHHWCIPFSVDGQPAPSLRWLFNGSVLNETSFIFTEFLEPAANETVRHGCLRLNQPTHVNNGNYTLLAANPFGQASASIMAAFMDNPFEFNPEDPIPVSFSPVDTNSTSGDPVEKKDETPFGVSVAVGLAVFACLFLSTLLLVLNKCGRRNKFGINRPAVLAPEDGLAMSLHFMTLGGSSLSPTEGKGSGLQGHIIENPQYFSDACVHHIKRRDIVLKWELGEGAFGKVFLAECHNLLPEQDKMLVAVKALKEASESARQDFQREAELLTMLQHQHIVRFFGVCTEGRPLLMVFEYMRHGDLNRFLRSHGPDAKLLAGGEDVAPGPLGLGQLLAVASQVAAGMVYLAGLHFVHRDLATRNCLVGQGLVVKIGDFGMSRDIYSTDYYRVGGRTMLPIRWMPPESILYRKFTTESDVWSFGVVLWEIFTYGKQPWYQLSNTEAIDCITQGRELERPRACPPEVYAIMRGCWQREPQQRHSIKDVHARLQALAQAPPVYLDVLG
Sequence of Mouse NGF (P01139 122-241): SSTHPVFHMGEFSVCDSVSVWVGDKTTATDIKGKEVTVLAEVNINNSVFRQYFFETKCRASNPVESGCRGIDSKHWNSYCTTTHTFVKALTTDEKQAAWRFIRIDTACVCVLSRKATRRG

| Kd (Mouse NGF) | Compound | IC50 [1] | binding to immobilized TrkA (immobilized TrkA) | NGF-mediated PC12 cell process formation ([1]; increasing concentrations 0-100 μmol/L) | PC12 cell count and morphology versus control (PC12 cells) |
| --- | --- | --- | --- | --- | --- |
| 35.8 µM | Cn1c2ccc(NC(=O)c3ccccc3)cc2c(=O)n2nc(C(=O)O)cc12 [PD 90780, 7‐(benzolylamino)‐4,9‐dihydro‐4‐methyl‐9‐oxo‐pyrazolo[5,1‐b]quinazoline‐2‐carboxylic acid] | 33.2 µM | none showed binding; also recorded: do not bind to TrkA | – | – |
| – | O=C(O)c1ccc(Cl)c(N2C(=O)c3ccc4c(=O)n5c6ccc([N+](=O)[O-])cc6nc5c5ccc(c3c45)C2=O)c1 [BVNP‐0197, 4‐Chloro‐3‐{6‐nitro‐11,16,18‐trioxo‐3,10,17‐triazahexacyclo[13.6.2.0^2,^10.0^4,^9.0^12,^22.0^19,^23]tricosa‐1(21),2,4,6,8,12,14,19,22‐nonaen‐17‐yl}benzoic acid] | – | – | significantly decreased | did not significantly differ from untreated cells |
| 32.4 µM | Cc1cc2nc3c(=O)[nH]c(=O)nc-3n(C)c2cc1C=O [Ro 08‐2750] | 12 µM | none showed binding; also recorded: do not bind to TrkA | – | – |
